According to patent US11000033B2, “Ketone or oxime compound, and herbicide” (NISSAN CHEMICAL CORPORATION, priority 2014, dated 2021):

What was measured:
Type in all cases: in vivo
Abutilon theophrasti [1] = test: Test Example 4: herbicidal effect by soil treatment (symbol M); settings: 320 g/ha
Summary of the method: (§1)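 Seeds were sown in sterilized diluvial soil, covered with about 1.5 cm of soil, and the soil surface was sprayed with a water-diluted emulsion of the compound at a predetermined rate. Plants grew in a greenhouse at 25° C. to 30° C.; effects were scored visually 3 weeks after application.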

Chenopodium album [2] = test: Test Example 5: herbicidal effect by foliage application, plastic box (symbol O); settings: 320 g/ha, 3 weeks after application
Summary of the method: (§2)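 Herbicide, formulated as an emulsion and diluted in water, is sprayed onto the aerial parts of 14-day seedlings. These were grown at 25° C. to 30° C. in sterilized diluvial soil; effects are graded after 3 weeks.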

Veronica persica = test: Test Example 5: herbicidal effect by foliage application, plastic box (symbol R); settings: 320 g/ha, 3 weeks after application
Summary of the method: as §2

Apera spica-venti [3] = test: Test Example 4: herbicidal effect by soil treatment (symbol L); settings: 320 g/ha
Summary of the method: as §1

[4] = test system: Echinochloa crus-galli var. crus-galli; test: Test Example 3: herbicidal effect by foliage application, Wagner pot (symbol H); settings: application herbicide amount 320 g/ha
Summary of the method: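 Seeds sown in alluvial soil kept under 0.1–0.5 cm water, greenhouse 25–30 °C; 14 d growth. Leaves treated by small sprayer with water-diluted emulsion at a predetermined rate. Effect graded by set scale, 3 weeks.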

Galium spurium = test: Test Example 4: herbicidal effect by soil treatment (symbol Q); settings: 320 g/ha
Summary of the method: as §1

Lolium multiflorum Lam. = test: Test Example 4: herbicidal effect by soil treatment (symbol K); settings: 320 g/ha
Summary of the method: as §1

Avena fatua = test: Test Example 5: herbicidal effect by foliage application, plastic box (symbol I); settings: 320 g/ha, 3 weeks after application
Summary of the method: as §2

Monochoria vaginalis = test: Test Example 2: herbicidal activity, application during weed generation in submerged conditions (symbol C); settings: Table 23; application herbicide amount 320 g/ha; grade 0-5 by criteria of Test Example 1
Summary of the method: (§3)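 Each pot contained alluvial soil under 4 cm of water with seeds of all three weeds sown together. Following growth at 25° C. to 30° C. to the one- to two-leaf stage, the floodwater received diluted emulsion at a predetermined amount; visual assessment followed at 3 weeks.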

Chenopodium album [5] = test: Test Example 4: herbicidal effect by soil treatment (symbol O); settings: 320 g/ha
Summary of the method: as §1

[6] = test system: Echinochloa oryzacola Vasing.; test: Test Example 2: herbicidal activity, application during weed generation in submerged conditions (symbol A); settings: Table 23; application herbicide amount 320 g/ha; grade 0-5 by criteria of Test Example 1
Summary of the method: as §3

Stellaria media = test: Test Example 5: herbicidal effect by foliage application, plastic box (symbol P); settings: 320 g/ha, 3 weeks after application
Summary of the method: as §2

rice plant = test: Test Example 5: effect on crop by foliage application, plastic box (symbol b); settings: 320 g/ha, 3 weeks after application
Summary of the method: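 A greenhouse held between 25° C. and 30° C. was used to grow plants sown spot-wise, beneath ~1.5 cm of soil, in boxes of sterilized diluvial soil.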

soybean = test: Test Example 4: effect on crop by soil treatment (symbol d); settings: 320 g/ha
Summary of the method: (§4)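 Diluvial soil (sterilized) in boxes; seeds placed spot-wise alongside weed species; ~1.5 cm covering soil. Greenhouse, 25–30° C.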

Apera spica-venti [7] = test: Test Example 5: herbicidal effect by foliage application, plastic box (symbol L); settings: 320 g/ha, 3 weeks after application
Summary of the method: as §2

Abutilon theophrasti [8] = test: Test Example 5: herbicidal effect by foliage application, plastic box (symbol M); settings: 320 g/ha, 3 weeks after application
Summary of the method: as §2

beet = test: Test Example 4: effect on crop by soil treatment (symbol f); settings: 320 g/ha
Summary of the method: as §4

Digitaria ciliaris = test: Test Example 4: herbicidal effect by soil treatment (symbol F); settings: 320 g/ha
Summary of the method: as §1

Setaria viridis = test: Test Example 4: herbicidal effect by soil treatment (symbol G); settings: 320 g/ha
Summary of the method: as §1

| SMILES | M: Abutilon theophrasti, herbicidal effect grade (Abutilon theophrasti [1]) | O: Chenopodium album, herbicidal effect (criteria 0-5) (Chenopodium album [2]) | R: Veronica persica, herbicidal effect (criteria 0-5) (Veronica persica) | L: Apera spica-venti, herbicidal effect grade (Apera spica-venti [3]) | herbicidal effect on H (Echinochloa crus-galli var. crus-galli), grade 0-5 [4] | Q: Galium spurium, herbicidal effect grade (Galium spurium) | K: Lolium multiflorum Lam., herbicidal effect grade (Lolium multiflorum Lam.) | I: Avena fatua, herbicidal effect (criteria 0-5) (Avena fatua) | Herbicidal effect grade, C: Monochoria vaginalis (Monochoria vaginalis) | O: Chenopodium album, herbicidal effect grade (Chenopodium album [5]) | Herbicidal effect grade, A: Echinochloa oryzacola Vasing. [6] | P: Stellaria media, herbicidal effect (criteria 0-5) (Stellaria media) | b: directly sowed rice plant, effect on crop (criteria 0-5) (rice plant) | d: soybean, effect grade on crop (soybean) | L: Apera spica-venti, herbicidal effect (criteria 0-5) (Apera spica-venti [7]) | M: Abutilon theophrasti, herbicidal effect (criteria 0-5) (Abutilon theophrasti [8]) | f: beet, effect grade on crop (beet) | F: Digitaria ciliaris, herbicidal effect grade (Digitaria ciliaris) | G: Setaria viridis, herbicidal effect grade (Setaria viridis) |
| --- | --- | --- | --- | --- | --- | --- | --- | --- | --- | --- | --- | --- | --- | --- | --- | --- | --- | --- | --- |
| CC(CC1CC(O)=C(c2c(C)cc(C)cc2C)C1=O)=NOCc1ccccc1C(F)(F)F (stereo not shown) [1-116] | 2 (Herbicidal ratio of 20% or higher and lower than 40%) | 3 (Herbicidal ratio of 40% or higher and lower than 70%) | 3 (Herbicidal ratio of 40% or higher and lower than 70%) | 3 (Herbicidal ratio of 40% or higher and lower than 70%) | 5 (Herbicidal ratio of 90% or more (almost completely withered)) | 0 (Herbicidal ratio of 5% or lower (almost no effect)) | 4 (Herbicidal ratio of 70% or higher and lower than 90%) | 4 (Herbicidal ratio of 70% or higher and lower than 90%) | 2 (Herbicidal ratio of 20% or higher and lower than 40%) | 0 (Herbicidal ratio of 5% or lower (almost no effect)) | 2 (Herbicidal ratio of 20% or higher and lower than 40%) | 2 (Herbicidal ratio of 20% or higher and lower than 40%) | 4 (Herbicidal ratio of 70% or higher and lower than 90%) | 0 (Herbicidal ratio of 5% or lower (almost no effect)) | 5 (Herbicidal ratio of 90% or more (almost completely withered)) | 1 (Herbicidal ratio of 5% or higher and lower than 20%) | 0 (Herbicidal ratio of 5% or lower (almost no effect)) | 1 (Herbicidal ratio of 5% or higher and lower than 20%) | 3 (Herbicidal ratio of 40% or higher and lower than 70%) |
| CC(CC1CC(O)=C(c2c(C)cc(C)cc2C)C1=O)=NOCc1cccc(C(F)(F)F)c1 (stereo not shown) [1-117] | 0 (Herbicidal ratio of 5% or lower (almost no effect)) | 0 (Herbicidal ratio of 5% or lower (almost no effect)) | 3 (Herbicidal ratio of 40% or higher and lower than 70%) | 5 (Herbicidal ratio of 90% or more (almost completely withered)) | 5 (Herbicidal ratio of 90% or more (almost completely withered)) | 0 (Herbicidal ratio of 5% or lower (almost no effect)) | 4 (Herbicidal ratio of 70% or higher and lower than 90%) | 5 (Herbicidal ratio of 90% or more (almost completely withered)) | 3 (Herbicidal ratio of 40% or higher and lower than 70%) | 0 (Herbicidal ratio of 5% or lower (almost no effect)) | 4 (Herbicidal ratio of 70% or higher and lower than 90%) | 3 (Herbicidal ratio of 40% or higher and lower than 70%) | 5 (Herbicidal ratio of 90% or more (almost completely withered)) | 0 (Herbicidal ratio of 5% or lower (almost no effect)) | 5 (Herbicidal ratio of 90% or more (almost completely withered)) | 1 (Herbicidal ratio of 5% or higher and lower than 20%) | 0 (Herbicidal ratio of 5% or lower (almost no effect)) | 4 (Herbicidal ratio of 70% or higher and lower than 90%) | 5 (Herbicidal ratio of 90% or more (almost completely withered)) |
| CC(CC1CC(O)=C(c2c(C)cc(C)cc2C)C1=O)=NOCC(C)Cl (stereo not shown) [1-121] | 0 (Herbicidal ratio of 5% or lower (almost no effect)) | 3 (Herbicidal ratio of 40% or higher and lower than 70%) | 3 (Herbicidal ratio of 40% or higher and lower than 70%) | 5 (Herbicidal ratio of 90% or more (almost completely withered)) | 5 (Herbicidal ratio of 90% or more (almost completely withered)) | 0 (Herbicidal ratio of 5% or lower (almost no effect)) | 5 (Herbicidal ratio of 90% or more (almost completely withered)) | 5 (Herbicidal ratio of 90% or more (almost completely withered)) | 1 (Herbicidal ratio of 5% or higher and lower than 20%) | 0 (Herbicidal ratio of 5% or lower (almost no effect)) | 5 (Herbicidal ratio of 90% or more (almost completely withered)) | 2 (Herbicidal ratio of 20% or higher and lower than 40%) | 5 (Herbicidal ratio of 90% or more (almost completely withered)) | 0 (Herbicidal ratio of 5% or lower (almost no effect)) | 5 (Herbicidal ratio of 90% or more (almost completely withered)) | 3 (Herbicidal ratio of 40% or higher and lower than 70%) | 0 (Herbicidal ratio of 5% or lower (almost no effect)) | 5 (Herbicidal ratio of 90% or more (almost completely withered)) | 5 (Herbicidal ratio of 90% or more (almost completely withered)) |
| CON=C(C)CC1CC(OS(=O)(=O)N(C)C)=C(c2c(C)cc(C)cc2C)C1=O (stereo not shown) [1-122] | 0 (Herbicidal ratio of 5% or lower (almost no effect)) | 0 (Herbicidal ratio of 5% or lower (almost no effect)) | 0 (Herbicidal ratio of 5% or lower (almost no effect)) | 1 (Herbicidal ratio of 5% or higher and lower than 20%) | 5 (Herbicidal ratio of 90% or more (almost completely withered)) | 0 (Herbicidal ratio of 5% or lower (almost no effect)) | 5 (Herbicidal ratio of 90% or more (almost completely withered)) | 5 (Herbicidal ratio of 90% or more (almost completely withered)) | 0 (Herbicidal ratio of 5% or lower (almost no effect)) | 0 (Herbicidal ratio of 5% or lower (almost no effect)) | 5 (Herbicidal ratio of 90% or more (almost completely withered)) | 1 (Herbicidal ratio of 5% or higher and lower than 20%) | 5 (Herbicidal ratio of 90% or more (almost completely withered)) | 0 (Herbicidal ratio of 5% or lower (almost no effect)) | 5 (Herbicidal ratio of 90% or more (almost completely withered)) | 4 (Herbicidal ratio of 70% or higher and lower than 90%) | 0 (Herbicidal ratio of 5% or lower (almost no effect)) | 2 (Herbicidal ratio of 20% or higher and lower than 40%) | 3 (Herbicidal ratio of 40% or higher and lower than 70%) |
